Test results reported in patent publication US11584714B2 (priority 2018, dated 2023).
Counter-ions that a name gives are not always drawn. Like-named read-outs stand apart in the source and are kept apart here.

Tests used:
Type in all cases: biochemical
MASP-2 (CCP1-CCP2-SP) = MASP-2 (CCP1-CCP2-SP) (Homo sapiens (Human), UniProt O00187); assay: biochemical
mMASP-2 = mMASP-2 (Mus musculus (Mouse), UniProt Q91WP0); assay: Enzymatic inhibition of mMASP-2
human α-thrombin = human α-thrombin (Homo sapiens (Human), UniProt P00734); assay: Enzymatic assay for thrombin (Boc-VPR-AMC substrate)
[1] = selectivity for MASP-2 inhibition versus thrombin
[2] = MASP-2 inhibition versus thrombin

Sequence of mMASP-2 (Q91WP0 20-685): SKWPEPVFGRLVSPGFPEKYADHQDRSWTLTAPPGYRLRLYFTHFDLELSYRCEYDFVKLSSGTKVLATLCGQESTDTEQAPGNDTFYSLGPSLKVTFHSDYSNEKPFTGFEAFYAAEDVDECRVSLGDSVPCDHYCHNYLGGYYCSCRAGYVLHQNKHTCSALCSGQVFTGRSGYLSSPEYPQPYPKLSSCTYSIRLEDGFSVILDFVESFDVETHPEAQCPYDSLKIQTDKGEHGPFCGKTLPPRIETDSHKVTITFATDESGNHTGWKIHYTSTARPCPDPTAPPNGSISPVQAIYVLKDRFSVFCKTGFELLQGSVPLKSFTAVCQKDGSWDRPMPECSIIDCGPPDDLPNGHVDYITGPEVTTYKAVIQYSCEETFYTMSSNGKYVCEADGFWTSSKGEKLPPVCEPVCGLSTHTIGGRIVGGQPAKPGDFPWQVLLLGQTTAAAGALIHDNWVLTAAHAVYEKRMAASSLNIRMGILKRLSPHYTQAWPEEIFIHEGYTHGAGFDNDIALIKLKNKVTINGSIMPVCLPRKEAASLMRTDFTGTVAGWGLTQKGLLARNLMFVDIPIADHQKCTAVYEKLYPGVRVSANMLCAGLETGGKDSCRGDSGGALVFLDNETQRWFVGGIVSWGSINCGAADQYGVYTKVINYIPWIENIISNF
Sequence of MASP-2 (CCP1-CCP2-SP) (O00187 445-686): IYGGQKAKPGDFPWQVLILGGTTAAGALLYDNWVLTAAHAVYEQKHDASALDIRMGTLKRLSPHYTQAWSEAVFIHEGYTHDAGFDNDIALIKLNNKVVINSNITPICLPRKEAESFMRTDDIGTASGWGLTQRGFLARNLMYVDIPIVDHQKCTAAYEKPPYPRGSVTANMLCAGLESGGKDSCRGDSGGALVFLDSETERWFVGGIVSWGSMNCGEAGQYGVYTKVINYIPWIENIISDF

Row | SMILES | Ki (MASP-2 (CCP1-CCP2-SP); read-out: MASP-2 Ki) [nM] | MASP-2 vs. thrombin selectivity (MASP-2 (CCP1-CCP2-SP); [1]) | Ki (mMASP-2; read-out: mMASP-2 Ki) [nM] | Ki (human α-thrombin; Thrombin Ki (μM)) [µM] | Ki (human α-thrombin; read-out: Thrombin Ki) [µM] | Ki (MASP-2 (CCP1-CCP2-SP)) [nM] | MASP-2 vs. thrombin selectivity (MASP-2 (CCP1-CCP2-SP); [2]) | Ki (mMASP-2) [nM]
1 | Cc1nc(N)ccc1CNC(=O)[C@H](C)NC(=O)[C@H]1C[C@H](Cc2cc(Br)c(Cl)s2)CN1 [compound 1483, (2R,4R)—N—((S)-1-(((6-Amino-2-methylpyridin-3-yl)methyl)amino)-1-oxopropan-2-yl)-4-((4-bromo-5-chlorothiophen-2-yl)methyl)pyrrolidine-2-carboxamide Di-trifluoroacetate salt] | < 500 | **** (≥100-fold) | < 500 | 10 to 25 | – | – | – | –
2 | C[C@H](NC(=O)[C@H]1C[C@@H](Cc2ccccc2)CN1)C(=O)NCc1ccc(C(=N)N)cc1 [compound 1284, (2R,4R)-4-Benzyl-N-((S)-1-((4-carbamimidoylbenzyl)amino)-1-oxopropan-2-yl)pyrrolidine-2-carboxamide] | < 500 | * (≥1.0 to <5.0-fold) | < 500 | – | < 0.5 | – | – | –
3 | Cc1nc(N)ccc1CNC(=O)[C@@H]1CCCN1C(=O)[C@H]1C[C@H](Cc2ccc(Br)cc2)CN1 [compound 1465, (S)—N-((6-Amino-2-methylpyridin-3-yl)methyl)-1-((2R,4S)-4-(4-bromobenzyl)pyrrolidine-2-carbonyl)pyrrolidine-2-carboxamide Di-trifluoroacetate salt] | < 500 | * (≥1.0 to <5.0-fold) | 500 to 2500 | – | < 0.5 | – | – | –
4 | Cc1nc(N)ccc1CNC(=O)[C@H](C)NC(=O)[C@H]1C[C@H](Cc2cccc(C(=O)N3CCC3)c2)CN1 [compound 1420, (2R,4S)—N—((S)-1-(((6-Amino-2-methylpyridin-3-yl)methyl)amino)-1-oxopropan-2-yl)-4-(3-(azetidine-1-carbonyl)benzyl)pyrrolidine-2-carboxamide Di-trifluoroacetate salt] | < 500 | **** (≥100-fold) | < 500 | 2.5 to 10 | – | – | – | –
5 | Cc1nc(N)ccc1CNC(=O)[C@H](C)NC(=O)c1cc(Cc2ccccc2)c[nH]1 [compound 1467, (S)—N-(1-(((6-Amino-2-methylpyridin-3-yl)methyl)amino)-1-oxopropan-2-yl)-4-benzyl-1H-pyrrole-2-carboxamide trifluoroacetic acid] | < 500 | **** (≥100-fold) | 500 to 2500 | – | > 25 | – | – | –
6 | C[C@H](NC(=O)[C@H]1C[C@H](c2ccccc2)CN1)C(=O)NCc1cc(N)n[nH]1 [compound 1336, (2R,4R)—N—((S)-1-(((3-Amino-1H-pyrazol-5-yl)methyl)amino)-1-oxopropan-2-yl)-4-phenylpyrrolidine-2-carboxamide Dihydrochloride] | – | – | > 25000 | – | > 25 | 10000 to 25000 | – | –
7 | C[C@H](NC(=O)[C@@H](CCc1ccccc1)NCCc1ccccc1)C(=O)NCc1ccc(C(=N)N)cc1 [compound 1340, (R)—N—((S)-1-((4-Carbamimidoylbenzyl)amino)-1-oxopropan-2-yl)-2-(phenethylamino)-4-phenylbutanamide Dihydrochloride] | < 500 | ** (≥5.0 to <25-fold) | < 500 | – | < 0.5 | – | – | –
8 | C[C@H](NC(=O)[C@@H](CCc1ccccc1)NCc1ccccc1)C(=O)NCc1ccc(C(=N)N)cc1 [compound 1134] | < 500 | – | < 500 | – | < 0.5 | – | −− (less than 1.0-fold) | –
9 | Cc1nc(N)ccc1CNC(=O)[C@H](C)NC(=O)[C@H]1C[C@H](Cc2ccc(F)c(Cl)c2)CN1 [compound 1459, (2R,4S)—N—((S)-1-(((6-Amino-2-methylpyridin-3-yl)methyl)amino)-1-oxopropan-2-yl)-4-(3-chloro-4-fluorobenzyl)pyrrolidine-2-carboxamide Di-trifluoroacetate salt] | < 500 | **** (≥100-fold) | < 500 | 2.5 to 10 | – | – | – | –
10 | C[C@H](NC(=O)[C@@H]1C[C@@H](Cc2ccccc2)CN1)C(=O)NCc1ccc(C(=N)N)cc1 [compound 1285, (2S,4R)-4-Benzyl-N-((S)-1-((4-carbamimidoylbenzyl)amino)-1-oxopropan-2-yl)pyrrolidine-2-carboxamide] | – | ** (≥5.0 to <25-fold) | 500 to 2500 | 2.5 to 10 | – | 500 to 2500 | – | –
11 | C[C@H](NC(=O)[C@@H](CCc1ccccc1)NCc1ccc(C(N)=O)cc1)C(=O)NCc1ccc(C(=N)N)cc1 [compound 1268, 4-((((R)-1-(((S)-1-((4-Carbamimidoylbenzyl)amino)-1-oxopropan-2-yl)amino)-1-oxo-4-phenylbutan-2-yl)amino)methyl)benzamide] | < 500 | * (≥1.0 to <5.0-fold) | < 500 | – | < 0.5 | – | – | –
12 | C[C@H](NC(=O)[C@H]1C[C@H](c2ccccc2)CN1)C(=O)NCc1cc(Cl)cc(C(N)=O)c1 [compound 1387, (2R,4R)—N—((S)-1-((3-Carbamoyl-5-chlorobenzyl)amino)-1-oxopropan-2-yl)-4-phenylpyrrolidine-2-carboxamide Trifluoroacetate salt] | – | – | 10000 to 25000 | – | > 25 | 2500 to 10000 | – | –
13 | Cc1cccc(CC[C@@H](N)C(=O)N[C@@H](C)C(=O)NCc2ccc(C(=N)N)cc2)c1C [compound 1072] | < 500 | – | < 500 | – | < 0.5 | – | ** (5.0 to 25-fold) | –
14 | C[C@H](NC(=O)[C@H](N)CCc1ccccc1)C(=O)NCc1ccnc(N)c1 [compound 1296, (R)-2-Amino-N—((S)-1-(((2-aminopyridin-4-yl)methyl)amino)-1-oxopropan-2-yl)-4-phenylbutanamide Dihydrochloride] | – | ** (≥5.0 to <25-fold) | > 25000 | – | > 25 | 2500 to 10000 | – | –
15 | CC[C@H](NC(=O)[C@H](N)CCc1ccccc1)C(=O)NCc1ccc(C(=N)N)cc1 [compound 1289, (R)-2-Amino-N—((S)-1-((4-carbamimidoylbenzyl)amino)-1-oxobutan-2-yl)-4-phenylbutanamide] | < 500 | −− (<1.0-fold) | < 500 | – | < 0.5 | – | – | –
16 | Cc1ccccc1CC[C@@H](N)C(=O)N[C@@H](C)C(=O)NCc1ccc(C(=N)N)cc1 [compound 1045] | < 500 | – | < 500 | – | < 0.5 | – | ** (5.0 to 25-fold) | –
17 | C[C@H](NC(=O)[C@H]1C[C@H](Cc2ccccc2)CN1)C(=O)NCc1ccc(C(=N)N)cc1 [compound 1306, (2R,4S)-4-Benzyl-N-((S)-1-((4-carbamimidoylbenzyl)amino)-1-oxopropan-2-yl)pyrrolidine-2-carboxamide Dihydrochloride] | < 500 | * (≥1.0 to <5.0-fold) | < 500 | – | < 0.5 | – | – | –
18 | CCCOC(=O)NC(=N)c1ccc(CNC(=O)[C@H](C)NC(=O)[C@H]2C[C@H](c3ccccc3)CN2)cc1 [compound 1263, Propyl (imino(4-(((S)-2-((2R,4R)-4-phenylpyrrolidine-2-carboxamido)propanamido)methyl)phenyl)methyl)carbamate] | – | – | – | – | > 25 | 2500 to 10000 | – | 2500 to 10000
19 | C[C@H](NC(=O)[C@H](N)CCc1ccccc1)C(=O)NCc1cnc(N)c(F)c1 [compound 1267, (R)-2-amino-N—((S)-1-(((6-amino-5-fluoropyridin-3-yl)methyl)amino)-1-oxopropan-2-yl)-4-phenylbutanamide] | – | – | > 25000 | – | > 25 | 2500 to 10000 | – | –
